This assay concerns DSS-induced colitis (IBD). Kind of assay: DSS-induced colitis (IBD) model in humanized NCG mice. It counts as in vivo, mouse. The note with it: 25 mg/kg i.p. every two days, 8 mice per group. The procedure: In the following study, an in vivo model was performed to verify the inhibitory effects of the antibodies of the present disclosure on DSS-induced colitis (IBD) in a mouse model for acute IBD. The experiment was carried out with female NOD/Shi-scid/IL-2Rγ null immunodeficient mouse strain (NCG). Mice were humanized using hematopoietic stem cells (CD34+) isolated from human cord blood following TransCure bioServices's proprietary humanization protocol. Only mice with a humanization rate (hCD45/total CD45) above 25% were used.
On day 1, mice were randomized based on the humanization rate and cord blood donors, acute colitis was induced by adding 3% of DSS (Sigma Aldrich, France) in drinking water (MilliQ water provided ad libitum) during […] from D1 to D7 and renewed every 2 days (only for groups #2, #3, #4, #5 and #6). For the recovery period, after the DSS cycle, the DSS solution was removed and replaced by MilliQ water (washout period) during 5 days from day 8 to day 12. […]
Endoscopy score was determined at D5 and D10. […] The endoscope was rectally inserted, and photographs of the endoscopic procedure were recorded. […]
Colon damages were evaluated during the endoscopy using TransCure bioServices's murine endoscopic index of colitis severity (MEICS) that consists of colon thickening, changes of vascular pattern, visible fibrin, granularity of mucosal surface and stool consistency as scoring parameters. […]
All mice were clinically monitored during the whole study for unexpected signs of distress, changes in body weight and evolution of disease severity. These parameters were recorded daily and each mouse was assigned a global IBD score, consisting of body weight, diarrhea & stool consistency and bleeding. The latter two were assessed by visually monitoring stool and mouse hairs around the anus and tail. Moreover, the mortality was also recorded.
With “Infliximab: Infliximab (Merck Sharp & Dohme, USA), comparator group #3”, the “mice that survived the complete study period” value is recorded as “two out of 8”.

Take Adalimumab: the “mice that survived the complete study period” value is given as “two out of 8”.

With “Tocilizumab: Tocilizumab (Roche, Switzerland), comparator group #4”, the “mice that survived the complete study period” value is listed as “one out of 8”.

The values are drawn from patent US20240174744A1, “METHODS OF TREATMENT USING PROTEIN BINDERS TO IRHOM2 EPITOPES” (SCIRHOM GMBH, priority 2021, published 2024).
